Laboratory results reported in patent publication US8507509B2, “Saturated and insaturated bi- or tricyclic aryloxyacetamine derivatives and their use as fungicides” (Syngenta Crop Protection LLC, priority 2007, dated 2013).

How the values were obtained:
[1] = tested on: Plasmopara viticola; assay: Plasmopara viticola (downy mildew of grapevine), grapevine leaf disk assay, preventive; type: in vivo; settings: foliar, 168 h, 200 ppm, grapevine leaf disks, assessed seven days after inoculation, read-out: control of fungal infection, Plasmopara viticola
[2] = tested on: Phytophthora infestans; assay: whole plant or invertebrate; type: in vivo; settings: in Solanum lycopersicum, foliar, 96 h, read-out: control of fungal infection, Phytophthora infestans
[3] = tested on: Erysiphe graminis f.sp. tritici; assay: Erysiphe graminis f.sp. tritici (wheat powdery mildew), wheat leaf segment assay, preventive; type: in vivo; settings: Blumeria graminis, foliar, 96 h; 200 ppm; wheat leaf segments; assessed four days after inoculation; read-out: control of fungal infection, Etysiphe graminis f.sp. tritici
[4] = tested on: Botrytis cinerea; assay: Botrytis cinerea (grey mould), bean leaf disk assay, preventive; type: in vivo; settings: foliar, 96 h, 200 ppm, bean leaf disks, assessed four days after inoculation, read-out: control of fungal infection, Botrytis cinerea
[5] = tested on: Septoria nodorum; assay: Septoria nodorum (wheat glume blotch), wheat leaf segment assay, preventive; type: in vivo; settings: Parastagonospora nodorum, foliar, 96 h; 200 ppm; wheat leaf segments; assessed four days after inoculation; read-out: control of fungal infection, Septoria nodorum
[6] = tested on: Septoria tritici; assay: Septoria tritici (leaf blotch), liquid culture growth inhibition in nutrient broth; type: cell-based; settings: Zymoseptoria tritici; 200 ppm; PDB broth, 24 C; inhibition of growth determined photometrically after 72 hrs; read-out: control of fungal infection, Septoria tritici
[7] = tested on: Pythium ultimum; assay: Pythium ultimum (Damping off), liquid culture growth inhibition in potato dextrose broth; type: cell-based; settings: Globisporangium ultimum; 20 ppm; potato dextrose broth, 24° C.; inhibition of growth determined photometrically after 48 hours; read-out: control of fungal infection, Pythium ultimum
[8] = tested on: Puccinia recondita f.sp. tritici; assay: Puccinia recondita f.sp. tritici (wheat brown rust), wheat leaf segment assay, preventive; type: in vivo; settings: foliar, 216 h, 200 ppm, wheat leaf segments, assessed nine days after inoculation, read-out: control of fungal infection, Puccinia recondite f.sp. tritici
[9] = tested on: Fusarium culmorum; assay: Fusarium culmorum (root rot), liquid culture growth inhibition in nutrient broth; type: cell-based; settings: PDB broth, 24 C, inhibition of growth determined photometrically after 48 hrs, read-out: control of fungal infection, Fusarium culmorum
Experimental: Mycelia fragments or conidia suspensions of a fungus, prepared either freshly from liquid cultures of the fungus or from cryogenic storage, are directly mixed into nutrient broth. DMSO solutions of the test compound (max. 10 mg/ml) is diluted with 0.025% Tween20 by factor 50 and 10 μl of this solution is pipetted into a microtiter plate (96-well format) and the nutrient broth containing the fungal spores/mycelia fragments is then added to give an end concentration of the tested compound. The test plates are incubated at 24° C. and 96% rH in the dark. The inhibition of fungal growth is determined photometrically after 2-6 days and antifungal activity is calculated.
Fusarium culmorum (root rot): Conidia of the fungus from cryogenic storage were directly mixed into nutrient broth (PDB potato dextrose broth). After placing a (DMSO) solution of the test compounds into a microtiter plate (96-well format) the nutrient broth containing the fungal spores was added. The test plates were incubated at 24 C and the inhibition of growth was determined photometrically after 48 hrs.

CCC(Oc1ccc2ncc(I)cc2c1)C(=O)NC(C)(C=NOC)COC (stereo not drawn) [Compound No. 68, 2-(3-Iodo-quinolin-6-yloxy)-N-(2-methoxyimino-1-methoxymethyl-1-methyl-ethyl]-butyramide]
≥ 60%: pest or weed control at 200 ppm [1] | pest or weed control at 200 ppm [2] | pest or weed control at 200 ppm [3] | pest or weed control at 200 ppm [4] | pest or weed control at 200 ppm [5] | inhibition of growth at 200 ppm [6]

CON=CC(C)(C)NC(=O)C(OC)Oc1ccc2ncc(C#C[Si](C)(C)C)cc2c1 (stereo not drawn) [Compound No. 74, 2-Methoxy-N-(2-methoxyimino-1,1-dimethyl-ethyl)-2-(3-trimethylsilanylethynyl-quinolin-6-yloxy)-acetamide]
≥ 60%: pest or weed control at 200 ppm [1] | pest or weed control at 200 ppm [2] | pest or weed control at 200 ppm [3] | pest or weed control at 200 ppm [4] | inhibition of growth at 200 ppm [6] | inhibition of growth at 20 ppm [7]

CCC(Oc1ccc2ncc(Br)cc2c1)C(=O)NC(C)(C)C=NOC (stereo not drawn) [Compound No. 144, 2-(3-Bromo-quinolin-6-yloxy)-N-(2-methoxyimino-1,1-dimethyl-ethyl)-butyramide]
≥ 60%: pest or weed control at 200 ppm [1] | pest or weed control at 200 ppm [2] | pest or weed control at 200 ppm [3] | pest or weed control at 200 ppm [8] | inhibition of growth at 200 ppm [6] | inhibition of growth at 200 ppm [9]

CCC(Oc1cc(C)c2ncc(Br)cc2c1)C(=O)NC(C)(C)C=NOC (stereo not drawn) [Compound No. 145, 2-(3-Bromo-8-methyl-quinolin-6-yloxy)-N-(2-methoxyimino-1,1-dimethyl-ethyl)-butyramide]
≥ 60%: pest or weed control at 200 ppm [1] | pest or weed control at 200 ppm [2] | pest or weed control at 200 ppm [3] | pest or weed control at 200 ppm [4] | pest or weed control at 200 ppm [5] | inhibition of growth at 200 ppm [6]

CON=CC(C)(C)NC(=O)C(Oc1cc(C)c2scnc2c1)SC (stereo not drawn) [Compound No. 87, N-(2-methoxyimino-1,1-dimethyl-ethyl)-2-(7-methyl-benzothiazol-5-yloxy)-2-methylsulfanyl-acetamide]
≥ 60%: pest or weed control at 200 ppm [4] | inhibition of growth at 20 ppm [7]

CSC(Oc1cc(C)c2ncc(I)cc2c1)C(=O)NC(C)(C)CC=NOC1CCCCO1 (stereo not drawn) [Compound No. 96, N-[1,1-Dimethyl-3-(tetrahydro-pyran-2-yloxyimino)-propyl]-2-(3-iodo-8-methyl-quinolin-6-yloxy)-2-methylsulfanyl-acetamide]
≥ 60%: pest or weed control at 200 ppm [1] | pest or weed control at 200 ppm [4] | inhibition of growth at 200 ppm [6] | inhibition of growth at 20 ppm [7]

CO/N=C(\C)C(C)(C)NC(=O)C(Oc1cc(C)c2ncc(Br)cc2c1)SC (stereo not drawn) [Compound No. 32, 2-(3-Bromo-8-methyl-quinolin-6-yloxy)-N-{2-[(E)-methoxyimino]-1,1-dimethyl-propyl}-2-methylsulfanyl-acetamide]
≥ 60%: pest or weed control at 200 ppm [1] | pest or weed control at 200 ppm [2] | pest or weed control at 200 ppm [3] | pest or weed control at 200 ppm [8] | inhibition of growth at 200 ppm [9] | inhibition of growth at 20 ppm [7]

CCC(Oc1cc(C)c2ncc(I)cc2c1)C(=O)NC(C)(C)C=NOC (stereo not drawn) [Compound No. 5, 2-(3-Iodo-8-methyl-quinolin-6-yloxy)-N-(2-methoxyimino-1,1-dimethyl-ethyl)-butyramide]
≥ 60%: pest or weed control at 200 ppm [1] | pest or weed control at 200 ppm [2] | pest or weed control at 200 ppm [3] | pest or weed control at 200 ppm [8] | pest or weed control at 200 ppm [5] | inhibition of growth at 200 ppm [6]

C#Cc1cnc2c(C)cc(OC(CC)C(=O)NC(C)(C)C=NOCC=C)cc2c1 (stereo not drawn) [Compound No. 138, N-(2-Allyloxyimino-1,1-dimethyl-ethyl)-2-(3-ethynyl-8-methyl-quinolin-6-yloxy)-butyramide]
≥ 60%: pest or weed control at 200 ppm [1] | pest or weed control at 200 ppm [2] | pest or weed control at 200 ppm [3] | pest or weed control at 200 ppm [8] | pest or weed control at 200 ppm [5] | inhibition of growth at 200 ppm [6] | inhibition of growth at 20 ppm [7]

CC#CCON=CC(C)(C)NC(=O)C(Oc1ccc2ncc(Br)cc2c1)SC (stereo not drawn) [Compound No. 141, 2-(3-Bromo-quinolin-6-yloxy)-N-(2-but-2-ynyloxyimino-1,1-dimethyl-ethyl)-2-methylsulfanyl-acetamide]
≥ 60%: pest or weed control at 200 ppm [1] | pest or weed control at 200 ppm [2] | pest or weed control at 200 ppm [3] | pest or weed control at 200 ppm [8] | inhibition of growth at 200 ppm [6] | inhibition of growth at 200 ppm [9] | inhibition of growth at 20 ppm [7]

CON=CCNC(=O)C(Oc1ccc2ncc(Br)cc2c1)SC (stereo not drawn) [Compound No. 93, 2-(3-Bromo-quinolin-6-yloxy)-N-(2-methoxyimino-ethyl)-2-methylsulfanyl-acetamide]
≥ 60%: pest or weed control at 200 ppm [1] | pest or weed control at 200 ppm [2] | pest or weed control at 200 ppm [3] | pest or weed control at 200 ppm [8] | pest or weed control at 200 ppm [5] | inhibition of growth at 200 ppm [6] | inhibition of growth at 200 ppm [9]

C=CCON=CC(C)(C)NC(=O)C(Oc1ccc2ncc(Br)cc2c1)SC (stereo not drawn) [Compound No. 13, N-(2-Allyloxyimino-1,1-dimethyl-ethyl)-2-(3-bromo-quinolin-6-yloxy)-2-methylsulfanyl-acetamide]
≥ 60%: pest or weed control at 200 ppm [1] | pest or weed control at 200 ppm [2] | pest or weed control at 200 ppm [3] | pest or weed control at 200 ppm [4] | inhibition of growth at 200 ppm [6] | inhibition of growth at 20 ppm [7]

CON=CC(C)(C)NC(=O)C(Oc1cc(C)c2ncsc2c1)SC (stereo not drawn) [Compound No. 89, N-(2-Methoxyimino-1,1-dimethyl-ethyl)-2-(4-methyl-benzothiazol-6-yloxy)-2-methylsulfanyl-acetamide]
≥ 60%: pest or weed control at 200 ppm [1] | pest or weed control at 200 ppm [2] | pest or weed control at 200 ppm [3] | pest or weed control at 200 ppm [4] | inhibition of growth at 200 ppm [6]

CCC(Oc1ccc2ncc(I)cc2c1)C(=O)NC(C)(C)C=NOCCF (stereo not drawn) [Compound No. 155, N-[2-(2-Fluoro-ethoxyimino)-1,1-dimethyl-ethyl]-2-(3-iodo-quinolin-6-yloxy)-butyramide]
≥ 60%: pest or weed control at 200 ppm [1] | pest or weed control at 200 ppm [2] | pest or weed control at 200 ppm [3] | pest or weed control at 200 ppm [8] | pest or weed control at 200 ppm [5] | inhibition of growth at 200 ppm [6] | inhibition of growth at 200 ppm [9]

CON=CC(C)(C)NC(=O)C(OC)Oc1cc(C)c2ncc(C#C[Si](C)(C)C)cc2c1 (stereo not drawn) [Compound No. 75, 2-Methoxy-N-(2-methoxyimino-1,1-dimethyl-ethyl)-2-(8-methyl-3-trimethylsilanylethynyl-quinolin-6-yloxy)-acetamide]
≥ 60%: pest or weed control at 200 ppm [1] | pest or weed control at 200 ppm [2] | pest or weed control at 200 ppm [3] | pest or weed control at 200 ppm [4] | pest or weed control at 200 ppm [5]

CSC(Oc1ccc2ncc(Br)cc2c1)C(=O)NC(C)(C)C=NOCCF (stereo not drawn) [Compound No. 142, 2-(3-Bromo-quinolin-6-yloxy)-N-[2-(2-fluoro-ethoxyimino)-1,1-dimethyl-ethyl]-2-methylsulfanyl-acetamide]
≥ 60%: pest or weed control at 200 ppm [1] | pest or weed control at 200 ppm [2] | pest or weed control at 200 ppm [3] | pest or weed control at 200 ppm [8] | inhibition of growth at 200 ppm [6] | inhibition of growth at 200 ppm [9] | inhibition of growth at 20 ppm [7]
